Data on one compound can be found in BindingDB's records for doi:10.1021/acs.jmedchem.1c01426 (University of The Pacific, 2021).

For orientation: Kd means the free concentration of one partner at which half of the binding sites on the other are occupied at equilibrium, for simple one-to-one binding.

The target in this test is Transthyretin (Homo sapiens) (UniProt P02766). Kind of test: Induction of stability of human recombinant interleukin 2 assessed as binding affinity of drug-conjugated rIL2 to human TTR in PBS buffer at pH 7.4 measured after 20 mins fluorescence polarization assay. (Polarisation of emitted light reports the rotation of a fluorescent probe.)

Turning to `Cc1n[nH]c(C)c1CCCOc1cc(OCCCc2cn(CCOCCOCCOCCOCCNC(=O)C3CCC(CN4C(=O)C=CC4=O)CC3)nn2)cc(C(=O)O)c1` (stereo unspecified), the Kd worked out at 851 nM.
